Test results reported in publication PMC12165992, “Biochemical characterization of lipase from Cryptococcus albidus (D24) and its application in sugar fatty acid ester synthesis” (Archives of Microbiology, 2025).

System: T1, D24 lipase
T1 construct: native extracellular lipase from culture supernatant, only partially purified (dialysed, 10 kDa cut-off concentrated)
Experiment: spectrophotometric p-nitrophenyl palmitate hydrolysis, Lineweaver-Burk
Assay type: biochemical, Naganishia albida
Settings: pH 5.6, 37 °C; partially purified native enzyme, free

## CCCCCCCCCCCCCCCC(=O)Oc1ccc([N+](=O)[O-])cc1 [p-nitrophenyl palmitate]
  Km: 0.158 µM
